Laboratory results from the supplement of paper PMC11061612.

Experiments:
Assay in all cases: combination Emax (second highest fraction inhibited in the dose matrix, 72 h); higher = more inhibition; extreme values may be limits of the assay
[1] = test system: BICR78 (Oral Cavity Carcinoma)
Procedure, shortened: (§1)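 Cell lines in DMEM/F12 or RPMI with 10% FBS were plated in 1536-well plates, held 24 hours at 37°C, 5% CO2, then given two-drug dose matrices for 72 hours (DMSO typically 0.2%). Viability was read by CellTiter-Glo 2.0 luminescence and scaled as inhibition from 0 (vehicle wells) to 1 (blank wells). Combination Emax is the second-highest inhibition in the matrix; Bliss excess is observed combination effect minus expected EA + EB − EA·EB, EA and EB being single-agent effects.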

CS1 (Chondrosarcoma) = test system: CS1 (Chondrosarcoma)
Procedure, shortened: as §1

[2] = test system: D-283MED (Other Solid Carcinomas)
Procedure, shortened: as §1

D-392MG (Glioblastoma) = test system: D-392MG (Glioblastoma)
Procedure, shortened: as §1

EW-22 (Ewing's Sarcoma) = test system: EW-22 (Ewing's Sarcoma)
Procedure, shortened: as §1

[3] = test system: FU-OV-1 (Ovarian Carcinoma)
Procedure, shortened: as §1

[4] = test system: HCT-116 (Colorectal Carcinoma)
Procedure, shortened: as §1

[5] = test system: HLE (Hepatocellular Carcinoma)
Procedure, shortened: as §1

[6] = test system: MEG-01 (Chronic Myelogenous Leukemia)
Procedure, shortened: as §1

MSTO-211H (Mesothelioma) = test system: MSTO-211H (Mesothelioma)
Procedure, shortened: as §1

[7] = test system: P31-FUJ (Acute Myeloid Leukemia)
Procedure, shortened: as §1

[8] = test system: SK-LMS-1 (Other Solid Carcinomas)
Procedure, shortened: as §1

SK-MEL-1 (Melanoma) = test system: SK-MEL-1 (Melanoma)
Procedure, shortened: as §1

[9] = test system: SK-UT-1 (Other Solid Carcinomas)
Procedure, shortened: as §1

[10] = test system: SLVL (B-Cell Non-Hodgkin's Lymphoma)
Procedure, shortened: as §1

[11] = test system: SNG-M (Endometrial Carcinoma)
Procedure, shortened: as §1

[12] = test system: SW48 (Colorectal Carcinoma)
Procedure, shortened: as §1

Saos-2 (Osteosarcoma) = test system: Saos-2 (Osteosarcoma)
Procedure, shortened: as §1

[13] = test system: WSU-DLCL2 (B-Cell Non-Hodgkin's Lymphoma)
Procedure, shortened: as §1

[14] = test system: YT (Other Blood Carcinomas)
Procedure, shortened: as §1

Structure (SMILES)	combination Emax [1]	combination Emax (CS1 (Chondrosarcoma))	combination Emax [2]	combination Emax (D-392MG (Glioblastoma))	combination Emax (EW-22 (Ewing's Sarcoma))	combination Emax [3]	combination Emax [4]	combination Emax [5]	combination Emax [6]	combination Emax (MSTO-211H (Mesothelioma))	combination Emax [7]	combination Emax [8]	combination Emax (SK-MEL-1 (Melanoma))	combination Emax [9]	combination Emax [10]	combination Emax [11]	combination Emax [12]	combination Emax (Saos-2 (Osteosarcoma))	combination Emax [13]	combination Emax [14]
C[C@@H](Nc1cc(F)cc(F)c1)c1cc(C(=O)N(C)C)cc2c(=O)cc(N3CCOCC3)oc12 [AZD8186] + C1CN(CCC1(C(=O)N[C@@H](CCO)C2=CC=C(C=C2)Cl)N)C3=NC=NC4=C3C=CN4 [AZD5363] (first compound max 10 µM, 7x7, partner max 10 µM)	0.394	0.264	0.485	0.363	0.45	0.401	0.47	0.144	0.226	0.265	0.521	0.494	0.154	0.344	0.709	0.429	0.557	0.425	1	0.247
C[C@@H](Nc1cc(F)cc(F)c1)c1cc(C(=O)N(C)C)cc2c(=O)cc(N3CCOCC3)oc12 [AZD8186] + CC(=O)c1c(C)c2cnc(Nc3ccc(N4CCNCC4)cn3)nc2n(C2CCCC2)c1=O [Palbociclib] (first compound max 10 µM, 7x7, partner max 10 µM)	0.385	0.513	0.831	0.446	0.45	0.444	0.684	0.197	0.182	0.428	0.277	0.808	0.265	0.231	0.439	0.432	0.617	0.329	0.762	0.448
C[C@@H](Oc1cc(-c2cnn(C3CCNCC3)c2)cnc1N)c1c(Cl)ccc(F)c1Cl [Crizotinib] + CC1=C(C(=CC=C1)Cl)NC(=O)C2=CN=C(S2)NC3=CC(=NC(=N3)C)N4CCN(CC4)CCO [Dasatinib] (first compound max 10 µM, 7x7, partner max 2 µM)	0.829	0.836	0.979	0.921	0.766	0.682	0.95	0.404	1	0.674	0.792	0.949	0.916	0.454	0.761	0.973	0.892	0.986	0.751	0.885
C[C@@H](Oc1cc(-c2cnn(C3CCNCC3)c2)cnc1N)c1c(Cl)ccc(F)c1Cl [Crizotinib] + Cn1cnc2c(F)c(Nc3ccc(Br)cc3Cl)c(C(=O)NOCCO)cc21 [Selumetinib] (first compound max 10 µM, 7x7, partner max 10 µM)	0.456	0.619	0.973	0.572	0.78	0.673	0.964	0.365	1	0.576	0.755	0.78	0.916	0.331	0.742	0.783	0.95	0.883	0.596	0.621
O=C(c1cc(Cc2n[nH]c(=O)c3ccccc23)ccc1F)N1CCN(C(=O)C2CC2)CC1 [Olaparib] + CC1(C)CCC(CN2CCN(c3ccc(C(=O)NS(=O)(=O)c4ccc(NCC5CCOCC5)c([N+](=O)[O-])c4)c(Oc4cnc5[nH]ccc5c4)c3)CC2)=C(c2ccc(Cl)cc2)C1 [Venetoclax] (first compound max 10 µM, 7x7, partner max 1 µM)	0.108	0.15	0.666	0.114	0.921	0.199	0.384	0.0962	0.109	0.0774	0.166	0.183	0.151	0.162	0.7	0.179	0.175	0.249	0.452	0.276
O=C(c1cc(Cc2n[nH]c(=O)c3ccccc23)ccc1F)N1CCN(C(=O)C2CC2)CC1 [Olaparib] + CN(CC[C@H](CSC1=CC=CC=C1)NC2=C(C=C(C=C2)S(=O)(=O)NC(=O)C3=CC=C(C=C3)N4CCC(CC4)[C@H](C5=CC=CC=C5C6=CC=C(C=C6)Cl)O)S(=O)(=O)C(F)(F)F)CCO [AZD4320] (first compound max 10 µM, 7x7, partner max 1 µM)	0.0831	0.431	0.914	0.321	0.988	0.226	0.509	0.274	0.505	0.456	0.568	0.494	0.42	0.466	0.982	0.401	0.687	0.326	0.876	0.343
O=C(c1cc(Cc2n[nH]c(=O)c3ccccc23)ccc1F)N1CCN(C(=O)C2CC2)CC1 [Olaparib] + COc1nnc2ccc(N3CCC(c4ccc(OCCN5CCN(C)C(=O)[C@H]5C)cc4)CC3)nn12 [AZD5153] (first compound max 10 µM, 7x7, partner max 1 µM)	0.41	0.374	0.881	0.405	0.909	0.59	0.741	0.338	0.76	0.246	0.57	0.544	0.303	0.559	0.685	0.47	0.561	0.454	0.949	0.53
O=C(c1cc(Cc2n[nH]c(=O)c3ccccc23)ccc1F)N1CCN(C(=O)C2CC2)CC1 [Olaparib] + Cc1c2c(nn1C)CSCc1cc(n(C)n1)CSc1cc(c3ccccc3c1)OCCCc1c(C(=O)O)n(C)c3c-2c(Cl)ccc13 [AZD5991] (first compound max 10 µM, 7x7, partner max 1 µM)	0.0524	0.0992	0.9	0.142	0.93	0.199	0.37	0.157	0.116	0.0433	0.964	0.165	0.127	0.109	0.362	0.234	0.178	0.384	0.996	1
N#Cc1cnc(Nc2cc(NC[C@H]3CNCCO3)c(C(F)(F)F)cn2)cn1 [SRA737] + C=CCn1c(=O)c2cnc(Nc3ccc(N4CCN(C)CC4)cc3)nc2n1-c1cccc(C(C)(C)O)n1 [AZD1775] (first compound max 10 µM, partner max 1 µM)	0.561	0.596	1	0.518	0.873	0.632	0.758	0.485	0.935	0.726	0.973	0.649	0.277	0.843	0.935	0.883	0.764	0.811	1	1
N#Cc1cnc(Nc2cc(NC[C@H]3CNCCO3)c(C(F)(F)F)cn2)cn1 [SRA737] + CCc1c2c(nc3ccc(O)cc13)-c1cc3c(c(=O)n1C2)COC(=O)[C@]3(O)CC [SN-38] (first compound max 10 µM, 7x7, partner max 0.3 µM)	0.854	0.786	0.994	0.453	0.932	0.495	0.818	0.798	0.946	0.705	0.984	0.89	0.486	0.943	0.945	0.786	0.854	0.948	1	0.987
N#Cc1cnc(Nc2cc(NC[C@H]3CNCCO3)c(C(F)(F)F)cn2)cn1 [SRA737] + Nc1ccn([C@@H]2O[C@H](CO)[C@@H](O)C2(F)F)c(=O)n1 [Gemcitabine] (first compound max 10 µM, 7x7, partner max 0.3 µM)	0.782	0.737	1	0.611	0.93	0.584	0.873	0.773	0.883	0.83	1	0.855	0.482	0.957	0.961	0.869	0.841	0.817	1	1
CC1(C)CCC(CN2CCN(c3ccc(C(=O)NS(=O)(=O)c4ccc(NCC5CCOCC5)c([N+](=O)[O-])c4)c(Oc4cnc5[nH]ccc5c4)c3)CC2)=C(c2ccc(Cl)cc2)C1 [Venetoclax] + CS(=O)(=O)CCNCc1ccc(-c2ccc3ncnc(Nc4ccc(OCc5cccc(F)c5)c(Cl)c4)c3c2)o1 [Lapatinib] (first compound max 1 µM, 7x7, partner max 10 µM)	0.364	0.411	0.927	0.0713	0.214	0.324	0.391	0.137	0.485	0.299	0.581	0.212	0.327	0.458	0.26	0.247	0.391	0.214	0.798	0.295
